Source: the NIST ThermoML archive (doi:10.1016/j.jct.2016.07.017)
Numbers after ± are expanded uncertainties.

experiment: activity coefficient (dimensionless); of the first substance listed, at infinite dilution; xn = mol fraction of the nth substance listed; details: 338.15 K; 101.33 kPa; Liquid; Chromatography; x1 = 0

| Structure (SMILES) | activity coefficient |
| --- | --- |
| CCO [ethanol] + CC[N+](C)(CC)CCOC.O=S(=O)([N-]S(=O)(=O)C(F)(F)F)C(F)(F)F | 1.5 ± 0.13 |
| CCc1ccccc1 [ethylbenzene] + CC[N+](C)(CC)CCOC.O=S(=O)([N-]S(=O)(=O)C(F)(F)F)C(F)(F)F | 2.26 ± 0.19 |
| CCCCCCC [heptane] + CC[N+](C)(CC)CCOC.O=S(=O)([N-]S(=O)(=O)C(F)(F)F)C(F)(F)F | 22.3 ± 1.9 |
| C=CCCCC [hex-1-ene] + CC[N+](C)(CC)CCOC.O=S(=O)([N-]S(=O)(=O)C(F)(F)F)C(F)(F)F | 8.33 ± 0.72 |
| CCCCCC [hexane] + CC[N+](C)(CC)CCOC.O=S(=O)([N-]S(=O)(=O)C(F)(F)F)C(F)(F)F | 15.8 ± 1.4 |
| CO [methanol] + CC[N+](C)(CC)CCOC.O=S(=O)([N-]S(=O)(=O)C(F)(F)F)C(F)(F)F | 1.15 ± 0.1 |
| CC1CCCCC1 [methylcyclohexane] + CC[N+](C)(CC)CCOC.O=S(=O)([N-]S(=O)(=O)C(F)(F)F)C(F)(F)F | 12.9 ± 1.1 |
| CCCCCCCCC [nonane] + CC[N+](C)(CC)CCOC.O=S(=O)([N-]S(=O)(=O)C(F)(F)F)C(F)(F)F | 45.3 ± 3.9 |
| C=CCCCCCC [oct-1-ene] + CC[N+](C)(CC)CCOC.O=S(=O)([N-]S(=O)(=O)C(F)(F)F)C(F)(F)F | 17.1 ± 1.5 |
| CCCCCCCC [octane] + CC[N+](C)(CC)CCOC.O=S(=O)([N-]S(=O)(=O)C(F)(F)F)C(F)(F)F | 31.9 ± 2.8 |
| CCCC(C)=O [pentan-2-one] + CC[N+](C)(CC)CCOC.O=S(=O)([N-]S(=O)(=O)C(F)(F)F)C(F)(F)F | 0.87 ± 0.072 |
| CCC(=O)CC [pentan-3-one] + CC[N+](C)(CC)CCOC.O=S(=O)([N-]S(=O)(=O)C(F)(F)F)C(F)(F)F | 0.889 ± 0.074 |
| CCCO [propan-1-ol] + CC[N+](C)(CC)CCOC.O=S(=O)([N-]S(=O)(=O)C(F)(F)F)C(F)(F)F | 1.87 ± 0.16 |
| CC(C)O [propan-2-ol] + CC[N+](C)(CC)CCOC.O=S(=O)([N-]S(=O)(=O)C(F)(F)F)C(F)(F)F | 1.7 ± 0.14 |
| c1ccncc1 [pyridine] + CC[N+](C)(CC)CCOC.O=S(=O)([N-]S(=O)(=O)C(F)(F)F)C(F)(F)F | 0.607 ± 0.053 |
| C=Cc1ccccc1 [styrene] + CC[N+](C)(CC)CCOC.O=S(=O)([N-]S(=O)(=O)C(F)(F)F)C(F)(F)F | 1.31 ± 0.11 |
| C1CCOC1 [tetrahydrofuran] + CC[N+](C)(CC)CCOC.O=S(=O)([N-]S(=O)(=O)C(F)(F)F)C(F)(F)F | 0.845 ± 0.07 |
| c1ccsc1 [thiophene] + CC[N+](C)(CC)CCOC.O=S(=O)([N-]S(=O)(=O)C(F)(F)F)C(F)(F)F | 0.925 ± 0.076 |

same assay, conditions: 348.15 K; 101.33 kPa; Liquid; Chromatography; x1 = 0

| Structure (SMILES) | activity coefficient |
| --- | --- |
| CCCCC(C)=O [2-hexanone] + CC[N+](C)(CC)CCOC.O=S(=O)([N-]S(=O)(=O)C(F)(F)F)C(F)(F)F | 1.18 ± 0.1 |
| CCC(C)(C)OC [2-methoxy-2-methylbutane] + CC[N+](C)(CC)CCOC.O=S(=O)([N-]S(=O)(=O)C(F)(F)F)C(F)(F)F | 3.8 ± 0.33 |
| COC(C)(C)C [2-methoxy-2-methylpropane] + CC[N+](C)(CC)CCOC.O=S(=O)([N-]S(=O)(=O)C(F)(F)F)C(F)(F)F | 2.67 ± 0.23 |
| CCCC(=O)CC [3-hexanone] + CC[N+](C)(CC)CCOC.O=S(=O)([N-]S(=O)(=O)C(F)(F)F)C(F)(F)F | 1.24 ± 0.1 |
| CCC(C)CC [3-methylpentane] + CC[N+](C)(CC)CCOC.O=S(=O)([N-]S(=O)(=O)C(F)(F)F)C(F)(F)F | 13.1 ± 1.1 |
| CC(C)=O [acetone] + CC[N+](C)(CC)CCOC.O=S(=O)([N-]S(=O)(=O)C(F)(F)F)C(F)(F)F | 0.509 ± 0.047 |
| CC#N [acetonitrile] + CC[N+](C)(CC)CCOC.O=S(=O)([N-]S(=O)(=O)C(F)(F)F)C(F)(F)F | 0.49 ± 0.045 |
| c1ccccc1 [benzene] + CC[N+](C)(CC)CCOC.O=S(=O)([N-]S(=O)(=O)C(F)(F)F)C(F)(F)F | 1.07 ± 0.09 |
| CCCCO [butan-1-ol] + CC[N+](C)(CC)CCOC.O=S(=O)([N-]S(=O)(=O)C(F)(F)F)C(F)(F)F | 2.18 ± 0.19 |
| C1CCCCCC1 [cycloheptane] + CC[N+](C)(CC)CCOC.O=S(=O)([N-]S(=O)(=O)C(F)(F)F)C(F)(F)F | 11.8 ± 1 |
| C1CCCCC1 [cyclohexane] + CC[N+](C)(CC)CCOC.O=S(=O)([N-]S(=O)(=O)C(F)(F)F)C(F)(F)F | 8.74 ± 0.75 |
| C1=CCCCC1 [cyclohexene] + CC[N+](C)(CC)CCOC.O=S(=O)([N-]S(=O)(=O)C(F)(F)F)C(F)(F)F | 5.16 ± 0.45 |
| C1CCCCCCC1 [cyclooctane] + CC[N+](C)(CC)CCOC.O=S(=O)([N-]S(=O)(=O)C(F)(F)F)C(F)(F)F | 15.7 ± 1.4 |
| C1CCCC1 [cyclopentane] + CC[N+](C)(CC)CCOC.O=S(=O)([N-]S(=O)(=O)C(F)(F)F)C(F)(F)F | 6.12 ± 0.53 |
| CCCCCCCCCC [decane] + CC[N+](C)(CC)CCOC.O=S(=O)([N-]S(=O)(=O)C(F)(F)F)C(F)(F)F | 58.1 ± 5 |
| CCOCC [diethyl ether] + CC[N+](C)(CC)CCOC.O=S(=O)([N-]S(=O)(=O)C(F)(F)F)C(F)(F)F | 2.59 ± 0.22 |
| CC(C)OC(C)C [diisopropyl ether] + CC[N+](C)(CC)CCOC.O=S(=O)([N-]S(=O)(=O)C(F)(F)F)C(F)(F)F | 6.03 ± 0.52 |
| CCCOCCC [dipropyl ether] + CC[N+](C)(CC)CCOC.O=S(=O)([N-]S(=O)(=O)C(F)(F)F)C(F)(F)F | 6.25 ± 0.54 |
| CCO [ethanol] + CC[N+](C)(CC)CCOC.O=S(=O)([N-]S(=O)(=O)C(F)(F)F)C(F)(F)F | 1.38 ± 0.12 |
| CCc1ccccc1 [ethylbenzene] + CC[N+](C)(CC)CCOC.O=S(=O)([N-]S(=O)(=O)C(F)(F)F)C(F)(F)F | 2.28 ± 0.2 |
| CCCCCCC [heptane] + CC[N+](C)(CC)CCOC.O=S(=O)([N-]S(=O)(=O)C(F)(F)F)C(F)(F)F | 21 ± 1.8 |
| C=CCCCC [hex-1-ene] + CC[N+](C)(CC)CCOC.O=S(=O)([N-]S(=O)(=O)C(F)(F)F)C(F)(F)F | 8.07 ± 0.7 |
| CCCCCC [hexane] + CC[N+](C)(CC)CCOC.O=S(=O)([N-]S(=O)(=O)C(F)(F)F)C(F)(F)F | 14.9 ± 1.3 |
| CO [methanol] + CC[N+](C)(CC)CCOC.O=S(=O)([N-]S(=O)(=O)C(F)(F)F)C(F)(F)F | 1.09 ± 0.09 |
| CC1CCCCC1 [methylcyclohexane] + CC[N+](C)(CC)CCOC.O=S(=O)([N-]S(=O)(=O)C(F)(F)F)C(F)(F)F | 12 ± 1 |
| CCCCCCCCC [nonane] + CC[N+](C)(CC)CCOC.O=S(=O)([N-]S(=O)(=O)C(F)(F)F)C(F)(F)F | 41 ± 3.5 |
| C=CCCCCCC [oct-1-ene] + CC[N+](C)(CC)CCOC.O=S(=O)([N-]S(=O)(=O)C(F)(F)F)C(F)(F)F | 16.2 ± 1.4 |
